Test results reported in patent US20110306580A1 (DONG WHA PHARMACEUTICAL CO ., LTD., priority 2009, published 2011).

System: ROS17/2.8 cells
Assay: Cell growth of ROS17/2.8 cells by the MTT method (formed formazan)
Type: cell-based, rat
Conditions: for activity at 0.02 µM: Rattus norvegicus, 2×10^−5M Test Compound solution diluted 1000 fold, read-out: Amount of formed formazan, Solution 8 (Test Compound alone); for activity at 0.02 µM / Amount of formed formazan, Solution 10 (a group of a drug combination): percentage to Solution 7 addition group, about 48 hours, average ± standard deviation of four wells; for Relative index of Solution 10 (a group of a drug combination) / Amount of formed formazan, Solution 10 (a group of a drug combination): Test Compound in combination with 1α,25-dihydroxyvitamin D3; for Relative index of Solution 10 (a group of a drug combination) / Relative index of Solution 8 (Test Compound alone): amount of formed formazan, Solution 7 = 1.00
Experimental: 100 μL of a 10% FCS-αMEM comprising either DMSO and ethanol (referred to as Solution 7, hereinafter), a Test Compound solution and ethanol (referred to as Solution 8, hereinafter), a 1α,25-dihydroxyvitamin D3 solution and DMSO (referred to as Solution 9, hereinafter) or a Test Compound solution and the 1α,25-dihydroxyvitamin D3 solution (referred to as Solution 10, hereinafter) was dispensed. The ROS17/2.8 cells were inoculated to a medium at a density of 5×10^3 cells/100 μL/well. After culture of the cells for about 48 hours, the effect of Test Compound and 1α,25-dihydroxyvitamin D3 on the cell growth of the ROS17/2.8 cells was evaluated using the MTT method. Namely, after culture of the cells for about 44 hours, an MTT solution (3-[4,5-dimethylthiazol-2-yl]-2,5-diphenyltetrazolium bromide 2 mg/mL) was added in an amount of 25 μL/well, and the cells were further cultured for four hours. After the medium was removed, DMSO was added in an amount of 100 μL/well so as to dissolve the formed formazan. The amount of the formed formazan was determined by measuring the absorbance (at 560 nm) of the solution by a microplate reader.
The 10% FCS-αMEM comprising Solution 7 was prepared by diluting DMSO by 1000 fold with the 10% FCS-αMEM, and diluting ethanol by 10000 fold with the 10% FCS-αMEM. The 10% FCS-αMEM comprising Solution 8 was prepared by diluting a 2×10^−5M Test Compound solution by 1000 fold with the 10% FCS-αMEM, and diluting ethanol by 10000 fold with the 10% FCS-αMEM. The 10% FCS-αMEM comprising Solution 9 was prepared by diluting 2×10^−3M 1α,25-dihydroxyvitamin D3 solution by 10000 fold with the 10% FCS-αMEM, and diluting DMSO by 1000 fold with the 10% FCS-αMEM. The 10% FCS-αMEM comprising Solution 10 was prepared by diluting a 2×10^−5M Test Compound solution by 1000 fold with the 10% FCS-αMEM, and diluting 2×10^−3M 1α,25-dihydroxyvitamin D3 solution by 10000 fold with the 10% FCS-αMEM.
The amount of the formed formazan in each solution addition group was obtained in terms of a percentage to the average value of the amounts of formed formazan in four wells in a Solution 7 addition group. All the determined values were shown in terms of the average value±standard deviation of the four wells of each solution addition group.

Row | SMILES | activity at 0.02 µM | Relative index of Solution 10 (a group of a drug combination) | Amount of formed formazan, Solution 10 (a group of a drug combination) | Relative index of Solution 8 (Test Compound alone)
1 | N/C(=N\O)c1ccc(OCCCCCOc2ccc(-c3nc(-c4cccnc4)sc3Cc3ccccc3)cc2)cc1 [Compound 2, N-hydroxy-4-{5-[4-(5-benzyl-2-(pyridin-3-yl)-1,3-thiazol-4-yl]phenoxy]pentoxy}benzamidine] | 103 ± 3.1% | 1.17 | 117 ± 2.6 # % | 1.03
2 | Cc1nc(-c2ccc(OCCCCCOc3ccc(/C(N)=N/O)cc3)cc2)c(CCCl)s1 [Compound 3, N-hydroxy-4-{5-[4-(5-(2-chloroethyl)-2-methyl-1,3-thiazol-4-yl)phenoxy]pentoxy}benzamidine] | 105 ± 3.1% | 1.12 | 112 ± 2.7 # % | 1.05
3 | CCc1nc(-c2ccc(OCCCCCOc3ccc(/C(N)=N/O)cc3)cc2)c(CC2CCCC2)s1 [Compound 4, N-hydroxy-4-{5-[4-(5-cyclopentylmethyl-2-ethyl-1,3-thiazol-4-yl)phenoxy]pentoxy}benzamidine] | 105 ± 1.9% | 1.12 | 112 ± 1.6 # % | 1.05
4 | C=Cc1sc(C)nc1-c1ccc(OCCCCCOc2ccc(/C(N)=N/O)cc2)cc1 [Compound 5, N-hydroxy-4-{5-[4-(5-vinyl-2-methyl-1,3-thiazol-4-yl)phenoxy]pentoxy}benzamidine] | 100 ± 3.7% | 1.10 | 110 ± 2.4 # % | 1.00
5 | CNc1nc(-c2ccc(OCCCCCOc3ccc(/C(N)=N/O)cc3)cc2)c(CC2CCCC2)s1 [Compound 6, N-hydroxy-4-{5-[4-(5-cyclopentylmethyl-2-methylamino-1,3-thiazol-4-yl)phenoxy]pentoxy}benzamidine] | 103 ± 2.5% | 1.13 | 113 ± 1.7 ## % | 1.03
6 | Cc1sc(N(C)CCO)nc1-c1ccc(OCCCCCOc2ccc(/C(N)=N/O)cc2)cc1 [Compound 7] | 109 ± 3.2% | 1.20 | 120 ± 2.3 ## % | 1.09
7 | Cc1sc(N(C)Cc2ccccc2)nc1-c1ccc(OCCCCCOc2ccc(/C(N)=N/O)cc2)cc1 [Compound 8, N-hydroxy-4-{5-[4-(2-benzylmethylamino-5-methyl-1,3-thiazol-4-yl)phenoxy]pentoxy}benzamidine] | 102 ± 4.9% | 1.15 | 115 ± 2.3 ## % | 1.02
8 | Cc1sc(N(C)Cc2cccnc2)nc1-c1ccc(OCCCCCOc2ccc(/C(N)=N/O)cc2)cc1 [Compound 9, N-hydroxy-4-{5-[4-(5-methyl-2-(methyl(pyridin-3-ylmethyl)amino)-1,3-thiazol-4-yl)phenoxy]pentoxy}benzamidine] | 108 ± 2.3% | 1.20 | 120 ± 2.1 ## % | 1.08
9 | CCc1sc(N(C)Cc2ccccc2)nc1-c1ccc(OCCCCCOc2ccc(/C(N)=N/O)cc2)cc1 [Compound 10, N-hydroxy-4-{5-[4-(2-benzylmethylamino-5-ethyl-1,3-thiazol-4-yl)phenoxy]pentoxy}benzamidine] | 99 ± 2.5% | 1.11 | 111 ± 1.3 # % | 0.99
10 | CC(C)c1sc(N(C)Cc2cccnc2)nc1-c1ccc(OCCCCCOc2ccc(/C(N)=N/O)cc2)cc1 [Compound 12, N-hydroxy-4-{5-[4-(5-isopropyl-2-(methyl(pyridin-3-yl-methyl)amino)-1,3-thiazol-4-yl)phenoxy]pentoxy}benzamidine] | 105 ± 3% | 1.15 | 115 ± 4.3 # % | 1.05
11 | CCCCc1sc(N(C)CCN2CCOCC2)nc1-c1ccc(OCCCCCOc2ccc(/C(N)=N/O)cc2)cc1 [Compound 13, N-hydroxy-4-{5-[4-(5-butyl-2-(methyl(2-(4-morpholino)ethyl)amino)-1,3-thiazol-4-yl)phenoxy]pentoxy}benzamidine] | 103 ± 5.2% | 1.13 | 113 ± 2.1 # % | 1.03
12 | CCCN(CCC)c1nc(-c2ccc(OCCCCCOc3ccc(/C(N)=N/O)cc3)cc2)c(CC2CCCC2)s1 [Compound 14, N-hydroxy-4-{5-[4-(5-cyclopentylmethyl-2-dipropylamino-1,3-thiazol-4-yl)phenoxy]pentoxy}benzamidine] | 103 ± 2.5% | 1.13 | 113 ± 1.3 # % | 1.03
13 | CN(CCN1CCOCC1)c1nc(-c2ccc(OCCCCCOc3ccc(/C(N)=N/O)cc3)cc2)c(C2CCCC2)s1 [Compound 15, N-hydroxy-4-{5-[4-(5-cyclopentyl-2-(methyl(2-(4-morpholino)ethyl)amino)-1,3-thiazol-4-yl)phenoxy]pentoxy}benzamidine] | 103 ± 3% | 1.15 | 115 ± 0.8 ## % | 1.03
14 | CCCN(CCC)c1nc(-c2ccc(OCCCCCOc3ccc(/C(N)=N/O)cc3)cc2)c(C(C)C)s1 [Compound 16, N-hydroxy-4-{5-[4-(5-isopropyl-2-dipropylamino-1,3-thiazol-4-yl)phenoxy]pentoxy}benzamidine] | 107 ± 1.3% | 1.18 | 118 ± 3.7 # % | 1.07
15 | CC(C)c1sc(N(C)C)nc1-c1ccc(OCCCCCOc2ccc(/C(N)=N/O)cc2)cc1 [Compound 17, N-hydroxy-4-{5-[4-(5-isopropyl-2-dimethylamino-1,3-thiazol-4-yl)phenoxy]pentoxy}benzamidine] | 97 ± 1.3% | 1.13 | 113 ± 1.7 # % | 0.97
16 | Cc1nc(-c2ccc(OCCCCC(=O)Nc3ccc(/C(N)=N/O)cc3)cc2)c(C(C)C)s1 [Compound 18, N-hydroxy-4-{5-[4-(5-isopropyl-2-methyl-1,3-thiazol-4-yl)phenoxy]pentanoylamino}benzamidine] | 106 ± 5% | 1.15 | 115 ± 3.0 ## % | 1.06
17 | Cc1nc(-c2ccc(OCCCCCN(C)c3ccc(/C(N)=N/O)cc3)cc2)c(C(C)C)s1 [Compound 19, N-hydroxy-4-{5-[4-(5-isopropyl-2-methyl-1,3-thiazol-4-yl)phenoxy]pentylmethylamino}benzamidine] | 108 ± 2.7% | 1.19 | 119 ± 4.8 # % | 1.08
18 | Cc1nc(-c2ccc(OCCCCCOc3ccc(/C(N)=N/O)c(F)c3)cc2)c(C(C)C)s1 [Compound 20, N-hydroxy-2-fluoro-4-{5-[4-(5-isopropyl-2-methyl-1,3-thiazol-4-yl)phenoxy]pentoxy}benzamidine] | 106 ± 3.1% | 1.13 | 113 ± 1.0 ## % | 1.06
